According to US6242601A, “Heterocyclic sulfamides” (Hoffman-La Roche Inc., priority 1999, dated 2001):

Assays:
[1] = biological target: T1, isolated rat aorta rings (Rattus norvegicus, UniProt P26684); assay: Inhibition of endothelin-induced contractions in isolated rat aorta rings; design: species or system adult Wistar-Kyoto rats; conditions: rat aorta rings without endothelium, 37° C.; endothelin-1 cumulative; from dose ratio; read-out: pA2 (converted)
T1 construct: Rings with a length of 5 mm were cut out from the thorax aorta of adult Wistar-Kyoto rats; from tissue; host or cells: thoracic aorta of adult Wistar-Kyoto rats, endothelium removed
T1 sequence (P26684 21-426): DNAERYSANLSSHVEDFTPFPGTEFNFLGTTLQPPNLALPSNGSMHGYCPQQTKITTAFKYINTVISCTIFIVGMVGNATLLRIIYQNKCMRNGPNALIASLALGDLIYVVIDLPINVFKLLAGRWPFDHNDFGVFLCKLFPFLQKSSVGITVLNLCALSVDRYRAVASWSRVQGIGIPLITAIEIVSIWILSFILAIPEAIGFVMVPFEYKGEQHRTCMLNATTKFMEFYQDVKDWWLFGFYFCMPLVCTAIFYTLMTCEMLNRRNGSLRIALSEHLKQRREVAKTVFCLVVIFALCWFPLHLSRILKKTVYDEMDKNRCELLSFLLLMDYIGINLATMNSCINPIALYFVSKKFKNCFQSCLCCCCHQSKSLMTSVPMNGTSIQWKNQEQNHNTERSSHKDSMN
Protocol: Rings with a length of 5 mm were cut out from the thorax aorta of adult Wistar-Kyoto rats. The endothelium was removed by lightly rubbing the internal surface. Each ring was immersed at 37° C. in 10 ml of Krebs-Henseleit solution in an isolated bath while gassing with 95% O2 and 5% CO2. The isometric stretching of the rings was measured. The rings were stretched to a pre-tension of 3 g.
The corresponding pA2 value, which is a measure of the activity of the test compound, was calculated using a computer programme according to the following equation from the "dose ratio" DR for each individual dosage-activity curve.
pA2 =log(DR-1)-log(antagonist-concentration)

[2] = biological target: T2, recombinant human ETA receptors (Homo sapiens, UniProt P25101); assay: Inhibition of endothelin binding on recombinant human ETA receptors expressed in CHO cells ([125I]ET-1, whole attached cells); design: expressed in transfected cells; host or cells: CHO cells; conditions: 35 pM [125I]ET-1, 2 h, 22° C.
T2 sequence (P25101 21-427): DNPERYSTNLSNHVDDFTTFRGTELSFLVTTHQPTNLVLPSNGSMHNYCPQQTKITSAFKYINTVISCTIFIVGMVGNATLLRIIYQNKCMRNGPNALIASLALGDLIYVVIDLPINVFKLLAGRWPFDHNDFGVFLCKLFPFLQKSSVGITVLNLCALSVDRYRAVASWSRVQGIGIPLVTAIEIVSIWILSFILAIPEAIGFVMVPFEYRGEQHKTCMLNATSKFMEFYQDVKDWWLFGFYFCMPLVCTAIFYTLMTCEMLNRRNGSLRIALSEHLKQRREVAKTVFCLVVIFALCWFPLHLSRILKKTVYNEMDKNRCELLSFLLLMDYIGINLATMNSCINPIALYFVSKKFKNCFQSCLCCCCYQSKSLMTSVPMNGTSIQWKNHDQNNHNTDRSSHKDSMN
Protocol: II. […] Cell culture. CHO cells, expressing recombinant human ETA receptor are grown in Minimal Essential Alpha Medium (Gibco Laboratories, Paisley, Scotland) supplemented with 0.1 μM methotrexate, 5% dialyzed fetal calf serum, 100 U/ml of penicillin and 100 μg/ml of streptomycin. Binding assays with whole attached cells are performed in 500 μl Dulbecco's Eagle medium (DMEM) containing 2 mg/ml bovine serum albumin and 25 mM Hepes. After incubation (2 h, 22° C.) in the presence of 35 pM [^125 I]ET-1 and increasing concentrations of various antagonists, the cells are extensively washed and finally solubilized in 1% (w/v) SDS, 0.5 M NaOH and 100 mM EDTA. Each assay is performed three times in triplicates and non specific binding is assessed in the presence of 100 nM unlabelled ET-1. Specific binding is defined as the difference between total binding and non specific binding. IC50 values are determined after logit/log transformation of the binding data.

[3] = Pharmacokinetics of the endothelin receptor antagonists after oral gavage in rats; format: in vivo; conditions: rat, plasma, 5 mg/kg in DMSO, Wistar rats, bioassay; for AUC: read-out: Area under the plasma concentration time curve; for Cmax: read-out: Peak concentration in rat plasma
Protocol: IV. […] The test compounds were dissolved in DMSO at a concentration of 5 mg/mL and administered orally by gavage at a dose of 1 mL/kg body weight corresponding to 5 mg/kg body weight. Two rats were administered per test compound. Blood samples were collected from the retro-orbital sinus at 1 and 5 h post dose in one rat, and at 3 and 7 h post dose in the other rat. In addition a terminal 24 h blood sample was collected from both rats by heart puncture. Blood was collected on EDTA-NaF. Plasma was derived by centrifugation at 2000 g at +4° C. for 15 min. Plasma samples were assayed for active drug related material with a bioassay, based on the binding competition of tested compounds and ^125 I ET-1 on recombinant ETA receptors. Quantitation of plasma samples was by comparison to a calibration curve build up from control rat plasma spiked with known concentrations of the test compounds.

[4] = biological target: T2, recombinant human ETA receptors; assay: Inhibition of endothelin binding to recombinant human ETA receptors expressed in baculovirus-infected insect cells (125I-endothelin); conditions: 125I-endothelin 20 pM; baculovirus-infected insect cell membranes; 20° C. for 2 hours or 4° C. for 24 hours
Protocol: I. […] A cDNA coding for human ETA receptors of human placenta was cloned ([…]. Yang, Y. Furuichi and C. Miyamoto, BBRC 180, 1265-1272) and expressed in the Baculovirus-insect cell system. Baculovirus-infected insect cells from a 23 1 fermenter are centrifuged off (3000×g, 15 minutes, 4° C.) 60 hours after the infection, re-suspended in Tris buffer (5 mM, pH 7.4, 1 mM MgCl2) and again centrifuged. After a further re-suspension and centrifugation the cells are suspended in 800 ml of the same buffer and […] at -120° C. The cells disintegrate when the suspension in this hypotonic buffer mixture is thawed. After a repeated […]/thawing cycle the suspension is homogenised and centrifuged (25000×g, 15 minutes, 4° C.). After suspension in Tris buffer (75 mM, pH 7.4, 25 mM MgCl2, 250 mM sucrose) 1 ml aliquots (protein content about 3.5 mg/ml) are stored at -85° C. […] The incubation is carried out at 20° C. for 2 hours or at 4° C. for 24 hours. The separation of free and membrane-bound radio-ligands is carried out by filtration over a glass fibre filter.

SMILES	Kb [1]	IC50 [2]	AUC [3]	Cmax [3]	IC50 [4]
COc1ccccc1Oc1c(NS(=O)(=O)c2ccc(C)cn2)nc(-c2ccnc(C(=O)O)c2)nc1OC [Example 21, 4-[4-methoxy-5-(2-methoxy-phenoxy)-6-(5-methyl-pyridine-2-sulfonylamino)-pyrimidin-2-yl]-pyridine-2-carboxylic acid]	≤ 6.31 nM	≤ 10 nM	–	–	–
COc1ccccc1Oc1c(NS(=O)(=O)c2ccc(C)cn2)nc(-c2ccnc(C#N)c2)nc1OC [Example 19, 5-methyl-pyridine-2-sulfonic acid [2-(2-cyano-pyridin-4-yl)-6-methoxy-5-(2-methoxy-phenoxy)-pyrimidin-4-yl]-amide]	–	≤ 10 nM	≥ 10000 ng·h/mL	≥ 1500 ng/mL	–
COC(=O)COc1cccc(-c2nc(NS(=O)(=O)c3ccc(C)cn3)c(Oc3ccccc3OC)c(OC)n2)c1 [Example 2, {3-[4-methoxy-5-(2-methoxy-phenoxy)-6-(5-methyl-pyridine-2-sulfonylamino)-pyrimidin-2-yl]-phenoxy}-acetic acid methyl ester]	–	≤ 10 nM	–	–	–
COc1ccccc1Oc1c(NS(=O)(=O)c2ccc(C)cn2)nc(-c2cccc(O)c2)nc1OC [Example 1, 5-methyl-pyridine-2-sulfonic acid [2-(3-hydroxy-phenyl)-6-methoxy-5-(2-methoxy-phenoxy)-pyrimidin-4-yl]-amide]	≤ 6.31 nM	≤ 10 nM	–	–	–
COc1ccccc1Oc1c(NS(=O)(=O)c2ccc(C)cn2)nc(-c2ccnc(CO)c2)nc1OC [Example 29, 5-methyl-pyridine-2-sulfonic acid [2-(2-hydroxymethyl-pyridin-4-yl)-6-methoxy-5-(2-methoxy-phenoxy)-pyrimidin-4-yl]-amide]	–	≤ 10 nM	–	–	≤ 50 nM
COc1ccccc1Oc1c(NS(=O)(=O)c2ccc(C)cn2)nc(-c2cccc(OCCO)c2)nc1OC [Example 7, 5-methyl-pyridine-2-sulfonic acid [2-[3-(2-hydroxy-ethoxy)-phenyl]-6-methoxy-5-(2-methoxy-phenoxy)-pyrimidin-4-yl]-amide]	≤ 6.31 nM	≤ 10 nM	≥ 10000 ng·h/mL	≥ 1500 ng/mL	–
CCOC(=O)c1cc(-c2nc(NS(=O)(=O)c3ccc(C)cn3)c(Oc3ccccc3OC)c(OC)n2)ccn1 [Example 23, 4-[4-methoxy-5-(2-methoxy-phenoxy)-6-(5-methyl-pyridine-2-sulfonylamino)-pyrimidin-2-yl]-pyridine-2-carboxylic acid ethyl ester]	≤ 6.31 nM	≤ 10 nM	–	–	–

Other lines, results leading:

Kb [1]	IC50 [2]	AUC [3]	Cmax [3]	IC50 [4]	SMILES
–	≤ 10 nM	–	–	–	COc1ccccc1Oc1c(NS(=O)(=O)c2ccc(C)cn2)nc(-c2ccnc(OCCO)c2)nc1OC [Example 36, 5-methyl-pyridine-2-sulfonic acid [2-[2-(2-hydroxy-ethoxy)-pyridin-4-yl]-6-methoxy-5-(2-methoxy-phenoxy)-pyrimidin-4-yl]-amide]
≤ 6.31 nM	–	≥ 10000 ng·h/mL	≥ 1500 ng/mL	–	COc1ccccc1Oc1c(NS(=O)(=O)c2ccc(C(C)C)cn2)nc(-c2ccnc(CNC(C)=O)c2)nc1OC [Example 52, N-{4-[4-(5-isopropyl-pyridine-2-sulfonylamino)-6-methoxy-5-(2-methoxy-phenoxy)-pyrimidin-2-yl]-pyridin-2-ylmethyl}-acetamide]
≤ 6.31 nM	–	≥ 10000 ng·h/mL	≥ 1500 ng/mL	–	COc1ccccc1Oc1c(NS(=O)(=O)c2ccc(C(C)C)cn2)nc(-c2ccnc(C(N)=O)c2)nc1OC [Example 42, 4-[4-(5-isopropyl-pyridine-2-sulfonylamino)-6-methoxy-5-(2-methoxy-phenoxy)-pyrimidin-2-yl]-pyridine-2-carboxylic acid amide]
≤ 6.31 nM	–	≥ 10000 ng·h/mL	≥ 1500 ng/mL	–	COc1ccccc1Oc1c(NS(=O)(=O)c2ccc(C)cn2)nc(-c2ccnc(-c3noc(C)n3)c2)nc1OC [Example 35, 5-methyl-pyridine-2-sulfonic acid {6-methoxy-5-(2-methoxy-phenoxy)-2-[2-(5-methyl-[1,2,4]oxadiazol-3-yl)-pyridin-4-yl]-pyrimidin-4-yl}-amide]
≤ 6.31 nM	≤ 10 nM	–	–	–	COc1ccccc1Oc1c(NS(=O)(=O)c2ccc(C(C)C)cn2)nc(-c2ccnc(C(=N)NO)c2)nc1OC [Example 55, N-hydroxy-4-[4-(5-isopropyl-pyridine-2-sulfonylamino)-6-methoxy-5-(2-methoxy-phenoxy)-pyrimidin-2-yl]-pyridine-2-carboxamidine]
≤ 6.31 nM	–	–	–	–	COc1ccccc1Oc1c(NS(=O)(=O)c2ccc(C(C)C)cn2)nc(-c2ccnc(OCCO)c2)nc1OC [Example 57, 5-isopropyl-pyridine-2-sulfonic acid [2-[2-(2-hydroxy-ethoxy)-pyridin-4-yl]-6-methoxy-5-(2-methoxy-phenoxy)-pyrimidin-4-yl]-amide]
≤ 6.31 nM	–	–	–	–	COc1ccccc1Oc1c(NS(=O)(=O)c2ccc(C(C)C)cn2)nc(-c2ccnc(CO)c2)nc1OC [Example 44, 5-isopropyl-pyridine-2-sulfonic acid [2-(2-hydroxymethyl-pyridin-4-yl)-6-methoxy-5-(2-methoxy-phenoxy)-pyrimidin-4-yl]-amide]
–	≤ 10 nM	–	–	–	COc1ccccc1Oc1c(NS(=O)(=O)c2ccc(C)cn2)nc(-c2ccnc(CNC(C)=O)c2)nc1OC [Example 30, N-{4-[4-methoxy-5-(2-methoxy-phenoxy)-6-(5-methyl-pyridine-2-sulfonylamino)-pyrimidin-2-yl]-pyridin-2-ylmethyl}-acetamide]
